Laboratory results from PubChem BioAssay (NCI).
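Each compound was tested at five concentrations against cells in 96-well plates for 48 hours. GI50 marks 50% less growth. At the TGI there is no net growth.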

What was measured:
Test in all cases: NCI tumour cell line growth inhibition, 48 h
786-0 renal = tested on: 786-0 renal
A549 NSCLC = tested on: A549 NSCLC
ACHN renal = tested on: ACHN renal
BT-549 breast = tested on: BT-549 breast
CAKI-1 renal = tested on: CAKI-1 renal
CCRF-CEM leukemia = tested on: CCRF-CEM leukemia
COLO 205 colon = tested on: COLO 205 colon
DU-145 prostate = tested on: DU-145 prostate
EKVX NSCLC = tested on: EKVX NSCLC
HCC-2998 colon = tested on: HCC-2998 colon
HCT-116 colon = tested on: HCT-116 colon
HCT-15 colon = tested on: HCT-15 colon
HOP-62 NSCLC = tested on: HOP-62 NSCLC
HS 578T breast = tested on: HS 578T breast
HT29 colon = tested on: HT29 colon
IGROV1 ovarian = tested on: IGROV1 ovarian
KM12 colon = tested on: KM12 colon
LOX IMVI melanoma = tested on: LOX IMVI melanoma
M14 melanoma = tested on: M14 melanoma
MALME-3M melanoma = tested on: MALME-3M melanoma
MCF7 breast = tested on: MCF7 breast
MDA-MB-231 breast = tested on: MDA-MB-231 breast
MDA-MB-435 = tested on: MDA-MB-435
MOLT-4 leukemia = tested on: MOLT-4 leukemia
NCI-H226 lung = tested on: NCI-H226 lung
NCI-H460 lung = tested on: NCI-H460 lung
NCI-H522 lung = tested on: NCI-H522 lung
OVCAR-3 ovarian = tested on: OVCAR-3 ovarian
OVCAR-4 ovarian = tested on: OVCAR-4 ovarian
OVCAR-5 ovarian = tested on: OVCAR-5 ovarian
OVCAR-8 ovarian = tested on: OVCAR-8 ovarian
PC-3 prostate = tested on: PC-3 prostate
RPMI-8226 leukemia = tested on: RPMI-8226 leukemia
RXF 393 renal = tested on: RXF 393 renal
SF-268 CNS = tested on: SF-268 CNS
SF-295 CNS = tested on: SF-295 CNS
SF-539 CNS = tested on: SF-539 CNS
SK-MEL-2 melanoma = tested on: SK-MEL-2 melanoma
SK-MEL-28 melanoma = tested on: SK-MEL-28 melanoma
SK-MEL-5 melanoma = tested on: SK-MEL-5 melanoma
SK-OV-3 ovarian = tested on: SK-OV-3 ovarian
SN12C renal = tested on: SN12C renal
SNB-19 CNS = tested on: SNB-19 CNS
SNB-75 CNS = tested on: SNB-75 CNS
SR leukemia = tested on: SR leukemia
SW-620 colon = tested on: SW-620 colon
T-47D breast = tested on: T-47D breast
TK-10 renal = tested on: TK-10 renal
U251 CNS = tested on: U251 CNS
UACC-257 melanoma = tested on: UACC-257 melanoma
UACC-62 melanoma = tested on: UACC-62 melanoma
UO-31 renal = tested on: UO-31 renal

CCCC(=O)O[C@]1(C)CC[C@@H]2[C@H]3[C@@H]1[C@@H]1C/C(C)=C\CC[C@](C)(OC(=O)[C@@H]2C)[C@H]3O1
GI50 (786-0 renal): 72.6 µM | TGI (786-0 renal): > 100 µM | GI50 (A549 NSCLC): 40.1 µM | TGI (A549 NSCLC): > 100 µM | GI50 (ACHN renal): 36.2 µM | TGI (ACHN renal): > 100 µM | GI50 (BT-549 breast): 61.9 µM | TGI (BT-549 breast): > 100 µM | GI50 (CAKI-1 renal): 31.7 µM | TGI (CAKI-1 renal): > 100 µM | GI50 (CCRF-CEM leukemia): 8.89 µM | TGI (CCRF-CEM leukemia): 26 µM | GI50 (COLO 205 colon): 43.2 µM | TGI (COLO 205 colon): > 100 µM | GI50 (DU-145 prostate): 74.5 µM | TGI (DU-145 prostate): > 100 µM | GI50 (EKVX NSCLC): 68.3 µM | TGI (EKVX NSCLC): > 100 µM | GI50 (HCC-2998 colon): 21.7 µM | TGI (HCC-2998 colon): 82.9 µM | GI50 (HCT-116 colon): 18.8 µM | TGI (HCT-116 colon): 38.2 µM | GI50 (HCT-15 colon): 44.4 µM | TGI (HCT-15 colon): > 100 µM | GI50 (HOP-62 NSCLC): 60.3 µM | TGI (HOP-62 NSCLC): > 100 µM | GI50 (HS 578T breast): 40 µM | TGI (HS 578T breast): > 100 µM | GI50 (HT29 colon): 32.1 µM | TGI (HT29 colon): > 100 µM | GI50 (IGROV1 ovarian): 24.3 µM | TGI (IGROV1 ovarian): > 100 µM | GI50 (KM12 colon): 32.8 µM | TGI (KM12 colon): > 100 µM | GI50 (LOX IMVI melanoma): 24.6 µM | TGI (LOX IMVI melanoma): 59.9 µM | GI50 (M14 melanoma): 32.5 µM | TGI (M14 melanoma): > 100 µM | GI50 (MALME-3M melanoma): 61.1 µM | TGI (MALME-3M melanoma): > 100 µM | GI50 (MCF7 breast): 29.1 µM | TGI (MCF7 breast): > 100 µM | GI50 (MDA-MB-231 breast): 25.5 µM | TGI (MDA-MB-231 breast): 94.4 µM | GI50 (MDA-MB-435): 32.6 µM | TGI (MDA-MB-435): > 100 µM | GI50 (MOLT-4 leukemia): 14.7 µM | TGI (MOLT-4 leukemia): 30.5 µM | GI50 (NCI-H226 lung): 41.3 µM | TGI (NCI-H226 lung): > 100 µM | GI50 (NCI-H460 lung): 22.5 µM | TGI (NCI-H460 lung): 69.8 µM | GI50 (NCI-H522 lung): 19.6 µM | TGI (NCI-H522 lung): 75.5 µM | GI50 (OVCAR-3 ovarian): 30.3 µM | TGI (OVCAR-3 ovarian): > 100 µM | GI50 (OVCAR-4 ovarian): 52.9 µM | TGI (OVCAR-4 ovarian): > 100 µM | GI50 (OVCAR-5 ovarian): 38.2 µM | TGI (OVCAR-5 ovarian): > 100 µM | GI50 (OVCAR-8 ovarian): 47.6 µM | TGI (OVCAR-8 ovarian): > 100 µM | GI50 (PC-3 prostate): 16.2 µM | TGI (PC-3 prostate): 41.3 µM | GI50 (RPMI-8226 leukemia): 15.9 µM | TGI (RPMI-8226 leukemia): 37.6 µM | GI50 (RXF 393 renal): > 100 µM | TGI (RXF 393 renal): > 100 µM | GI50 (SF-268 CNS): 47.8 µM | TGI (SF-268 CNS): > 100 µM | GI50 (SF-295 CNS): 41.2 µM | TGI (SF-295 CNS): > 100 µM | GI50 (SF-539 CNS): > 100 µM | TGI (SF-539 CNS): > 100 µM | GI50 (SK-MEL-2 melanoma): 49.5 µM | TGI (SK-MEL-2 melanoma): > 100 µM | GI50 (SK-MEL-28 melanoma): 78.5 µM | TGI (SK-MEL-28 melanoma): > 100 µM | GI50 (SK-MEL-5 melanoma): 13.4 µM | TGI (SK-MEL-5 melanoma): 33.1 µM | GI50 (SK-OV-3 ovarian): > 100 µM | TGI (SK-OV-3 ovarian): > 100 µM | GI50 (SN12C renal): 47.9 µM | TGI (SN12C renal): > 100 µM | GI50 (SNB-19 CNS): > 100 µM | TGI (SNB-19 CNS): > 100 µM | GI50 (SNB-75 CNS): > 100 µM | TGI (SNB-75 CNS): > 100 µM | GI50 (SR leukemia): 13.2 µM | TGI (SR leukemia): 26.9 µM | GI50 (SW-620 colon): 40.6 µM | TGI (SW-620 colon): > 100 µM | GI50 (T-47D breast): > 100 µM | TGI (T-47D breast): > 100 µM | GI50 (TK-10 renal): 86.9 µM | TGI (TK-10 renal): > 100 µM | GI50 (U251 CNS): 41.8 µM | TGI (U251 CNS): > 100 µM | GI50 (UACC-257 melanoma): 43.3 µM | TGI (UACC-257 melanoma): > 100 µM | GI50 (UACC-62 melanoma): 24.4 µM | TGI (UACC-62 melanoma): > 100 µM | GI50 (UO-31 renal): 23.6 µM | TGI (UO-31 renal): 65.6 µM
